Experimental data taken from patent US12421225B2, “Heteroaromatic amide derivative and medicament containing the same” (KAKEN PHARMACEUTICAL CO., LTD., priority 2018, dated 2025).
Where a name gives a salt, the structure may show the parent alone.

Columns and labels:
human Nav1.7 = human Nav1.7 (Homo sapiens (Human), UniProt Q15858); assay: Human Nav1.7 inhibitory activity evaluation (automated patch clamp QPatch16X, HEK293A cells stably expressing human Nav1.7 and human Navβ1); type: cell-based
human Nav1.7, sequence (Q15858 whole entry): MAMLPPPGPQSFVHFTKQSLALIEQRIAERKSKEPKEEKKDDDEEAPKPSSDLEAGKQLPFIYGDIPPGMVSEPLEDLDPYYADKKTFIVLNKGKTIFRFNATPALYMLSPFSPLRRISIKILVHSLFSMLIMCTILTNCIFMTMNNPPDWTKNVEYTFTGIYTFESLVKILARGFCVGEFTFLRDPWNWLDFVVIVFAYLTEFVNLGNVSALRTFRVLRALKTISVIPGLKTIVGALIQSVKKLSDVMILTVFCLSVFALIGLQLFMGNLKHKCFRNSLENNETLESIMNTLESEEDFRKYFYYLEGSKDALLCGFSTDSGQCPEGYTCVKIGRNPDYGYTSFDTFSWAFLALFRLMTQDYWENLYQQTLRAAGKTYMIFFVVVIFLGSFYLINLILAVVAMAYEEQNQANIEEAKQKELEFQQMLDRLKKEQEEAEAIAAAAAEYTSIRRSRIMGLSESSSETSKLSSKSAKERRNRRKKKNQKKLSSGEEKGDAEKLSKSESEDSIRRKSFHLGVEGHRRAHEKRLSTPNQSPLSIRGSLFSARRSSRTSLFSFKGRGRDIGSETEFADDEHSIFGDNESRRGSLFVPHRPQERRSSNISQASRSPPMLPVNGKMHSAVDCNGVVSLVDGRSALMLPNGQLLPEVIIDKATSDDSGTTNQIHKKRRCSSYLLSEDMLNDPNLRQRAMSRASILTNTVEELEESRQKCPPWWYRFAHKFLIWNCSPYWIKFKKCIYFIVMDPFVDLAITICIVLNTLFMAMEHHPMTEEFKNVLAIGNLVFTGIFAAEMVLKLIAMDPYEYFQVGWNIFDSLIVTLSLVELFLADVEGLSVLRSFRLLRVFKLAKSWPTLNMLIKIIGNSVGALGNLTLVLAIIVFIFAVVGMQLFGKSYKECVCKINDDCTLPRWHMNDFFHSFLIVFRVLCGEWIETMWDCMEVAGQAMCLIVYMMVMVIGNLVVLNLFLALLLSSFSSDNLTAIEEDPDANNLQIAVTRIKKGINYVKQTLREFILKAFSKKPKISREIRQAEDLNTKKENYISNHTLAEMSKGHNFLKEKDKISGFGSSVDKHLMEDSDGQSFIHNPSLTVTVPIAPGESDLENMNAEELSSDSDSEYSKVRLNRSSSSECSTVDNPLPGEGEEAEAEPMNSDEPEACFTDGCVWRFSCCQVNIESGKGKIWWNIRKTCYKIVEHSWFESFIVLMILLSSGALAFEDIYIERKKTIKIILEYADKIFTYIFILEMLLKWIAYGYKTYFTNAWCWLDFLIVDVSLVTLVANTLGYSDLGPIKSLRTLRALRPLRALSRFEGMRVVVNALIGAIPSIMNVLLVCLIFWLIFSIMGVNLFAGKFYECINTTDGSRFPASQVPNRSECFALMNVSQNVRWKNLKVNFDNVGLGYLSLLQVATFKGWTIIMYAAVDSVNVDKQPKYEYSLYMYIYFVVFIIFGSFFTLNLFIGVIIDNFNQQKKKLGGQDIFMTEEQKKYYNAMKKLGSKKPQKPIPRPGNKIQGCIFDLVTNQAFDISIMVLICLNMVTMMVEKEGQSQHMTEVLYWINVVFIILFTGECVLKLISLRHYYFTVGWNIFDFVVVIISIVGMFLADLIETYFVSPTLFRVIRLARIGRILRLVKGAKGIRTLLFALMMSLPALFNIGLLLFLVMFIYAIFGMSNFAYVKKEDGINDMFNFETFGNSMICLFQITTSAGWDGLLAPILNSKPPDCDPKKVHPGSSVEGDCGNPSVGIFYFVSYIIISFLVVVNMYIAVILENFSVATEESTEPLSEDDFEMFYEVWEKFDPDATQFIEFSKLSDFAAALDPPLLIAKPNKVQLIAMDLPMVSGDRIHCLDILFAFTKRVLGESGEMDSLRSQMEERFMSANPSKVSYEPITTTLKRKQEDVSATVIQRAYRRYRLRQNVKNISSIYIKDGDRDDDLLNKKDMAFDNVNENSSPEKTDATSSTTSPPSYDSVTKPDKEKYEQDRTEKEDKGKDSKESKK
human Nav1.7, sequence (Q07699 19-218 partner): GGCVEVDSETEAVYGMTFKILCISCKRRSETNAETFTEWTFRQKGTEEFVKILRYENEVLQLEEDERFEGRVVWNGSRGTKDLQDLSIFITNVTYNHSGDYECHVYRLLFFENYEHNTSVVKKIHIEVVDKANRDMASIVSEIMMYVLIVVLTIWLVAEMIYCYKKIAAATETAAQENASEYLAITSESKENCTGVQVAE
How it was run: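 IC50 calculated from the concentration-response of inward current evoked by the second −10 mV, 50 ms depolarisation, which follows a 15 s conditioning step at roughly 30-40% inactivation and a 100 ms −120 mV interval. Cells: HEK293A expressing human Nav1.7/Navβ1, automated patch clamp, room temperature, 0.1% DMSO final.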

human Nav1.5 = human Nav1.5 (Homo sapiens (Human), UniProt Q14524); assay: Human Nav1.5 inhibitory activity evaluation (automated patch clamp QPatch16X, HEK293 cells stably expressing human Nav1.5); type: cell-based
human Nav1.5, sequence (Q14524 whole entry): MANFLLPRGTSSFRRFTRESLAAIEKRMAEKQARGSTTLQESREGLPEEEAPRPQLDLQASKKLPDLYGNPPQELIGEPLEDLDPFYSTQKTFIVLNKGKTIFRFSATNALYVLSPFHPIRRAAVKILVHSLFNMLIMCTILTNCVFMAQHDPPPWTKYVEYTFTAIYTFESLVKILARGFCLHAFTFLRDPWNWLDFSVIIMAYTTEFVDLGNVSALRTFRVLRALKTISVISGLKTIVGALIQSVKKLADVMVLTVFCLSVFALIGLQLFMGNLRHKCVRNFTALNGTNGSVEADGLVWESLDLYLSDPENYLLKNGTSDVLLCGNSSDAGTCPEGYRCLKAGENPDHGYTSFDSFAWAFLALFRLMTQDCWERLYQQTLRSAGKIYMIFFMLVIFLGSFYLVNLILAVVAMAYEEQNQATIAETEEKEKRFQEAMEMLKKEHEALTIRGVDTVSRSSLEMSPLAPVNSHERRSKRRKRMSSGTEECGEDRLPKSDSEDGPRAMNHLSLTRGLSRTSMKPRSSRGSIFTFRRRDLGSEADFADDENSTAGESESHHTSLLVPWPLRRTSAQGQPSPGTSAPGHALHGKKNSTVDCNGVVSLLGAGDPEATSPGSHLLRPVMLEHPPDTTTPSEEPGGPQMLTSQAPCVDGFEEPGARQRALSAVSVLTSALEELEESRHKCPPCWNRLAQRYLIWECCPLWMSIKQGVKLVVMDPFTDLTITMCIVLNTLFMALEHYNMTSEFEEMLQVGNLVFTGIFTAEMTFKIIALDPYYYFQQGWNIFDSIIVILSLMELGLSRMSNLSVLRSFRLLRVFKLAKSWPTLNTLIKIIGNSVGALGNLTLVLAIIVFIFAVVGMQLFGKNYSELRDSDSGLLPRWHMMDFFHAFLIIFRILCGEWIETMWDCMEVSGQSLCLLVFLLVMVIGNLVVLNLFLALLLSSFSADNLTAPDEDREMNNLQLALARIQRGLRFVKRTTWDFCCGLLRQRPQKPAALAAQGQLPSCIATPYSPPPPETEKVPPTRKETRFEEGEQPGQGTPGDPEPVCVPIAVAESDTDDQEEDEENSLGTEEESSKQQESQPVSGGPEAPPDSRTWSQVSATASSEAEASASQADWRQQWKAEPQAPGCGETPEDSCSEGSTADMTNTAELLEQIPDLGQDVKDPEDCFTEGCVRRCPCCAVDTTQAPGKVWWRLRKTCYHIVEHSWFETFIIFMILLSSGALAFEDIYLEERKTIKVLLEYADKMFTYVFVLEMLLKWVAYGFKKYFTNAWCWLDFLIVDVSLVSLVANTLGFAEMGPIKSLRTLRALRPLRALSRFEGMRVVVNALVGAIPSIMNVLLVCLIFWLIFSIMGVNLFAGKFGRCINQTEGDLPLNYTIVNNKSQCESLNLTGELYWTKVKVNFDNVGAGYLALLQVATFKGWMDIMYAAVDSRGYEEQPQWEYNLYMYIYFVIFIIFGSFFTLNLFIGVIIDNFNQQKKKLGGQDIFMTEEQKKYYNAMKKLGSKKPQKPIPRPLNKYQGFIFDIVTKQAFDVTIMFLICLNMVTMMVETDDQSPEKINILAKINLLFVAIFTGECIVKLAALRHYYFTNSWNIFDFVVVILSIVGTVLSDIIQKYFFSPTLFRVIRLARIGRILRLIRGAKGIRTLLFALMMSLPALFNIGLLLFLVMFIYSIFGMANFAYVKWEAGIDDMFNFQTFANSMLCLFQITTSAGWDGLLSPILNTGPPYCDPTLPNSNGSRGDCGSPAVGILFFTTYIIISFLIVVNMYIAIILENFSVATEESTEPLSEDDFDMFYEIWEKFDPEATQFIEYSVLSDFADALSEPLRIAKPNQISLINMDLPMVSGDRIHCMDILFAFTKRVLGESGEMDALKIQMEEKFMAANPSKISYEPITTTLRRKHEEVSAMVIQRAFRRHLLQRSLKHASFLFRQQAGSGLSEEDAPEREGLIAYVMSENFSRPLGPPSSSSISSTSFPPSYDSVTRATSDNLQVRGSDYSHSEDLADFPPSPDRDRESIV
How it was run: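 IC50 derived from concentration-response of inward current at the 20th of 20 action-potential-mimicking pulses (holding −80 mV, leak corrected with −100 mV step). HEK293 cells stably expressing human Nav1.5, room temperature, extracellular pH 7.4, intracellular CsF-based pH 7.3, 0.1% DMSO.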

male ICR mice = assay: Effect on acute pain (capsaicin-induced pain-related behavior, hind paw); type: in vivo
Protocol: Test Example 3: Effect on Acute Pain
Six-week old male ICR mice were used for the test. Test compounds were orally administered at 1-10 mg/kg and the mice were habituated to a clear observation cage for 60 minutes. The mice were lightly restrained under no anesthesia and 20 μL of 80 μg/mL (0.8% ethanol-saline) capsaicin solution was injected subcutaneously into the plantar surface of rihgt hind paw of mice. The mice were returned to the observation cage and, from just after that, the duration of pain-related behavior (licking, shaking) occurring in the right hind limb was measured as the reaction time for 5 minutes.
The inhibition rate of the test compound was determined by the following calculation formula. Test compound inhibition rate (%)=100×[1−(response time of test compound administered group/response time of vehicle control group)]

[1] = HEK293A cells stably expressing human Nav1.7 and human Navβ1, automated patch clamp QPatch16X
[2] = HEK293 cells stably expressing human Nav1.5, automated patch clamp QPatch16X
[3] = human Nav1.5, automated patch clamp
[4] = human Nav1.7, automated patch clamp

Row | IC50 (human Nav1.7; [1]) [nM] | IC50 (human Nav1.7; [4]) [nM] | SMILES | IC50 (human Nav1.5; [2]) [nM] | Inhibition rate (%) (male ICR mice) | IC50 (human Nav1.5; [3]) [nM]
1 | – | < 1000 | O=C(N[C@H]1COc2ccc(Cl)cc2C1)c1cc2n(n1)CCN(CC1CCC1(F)F)C2 (stereo partly shown) [Example 494] | – | – | 1000 to 3000
2 | – | < 1000 | O=C(N[C@H]1COc2ccc(Cl)cc2C1)c1cc2n(n1)CCN(CC(F)(F)C1CC1)C2 [Example 495] | – | – | ≥ 3000
3 | – | < 1000 | N#Cc1ccc2c(c1)C[C@@H](NC(=O)c1cc3n(n1)CCN(CCC1CCC1)C3)CO2 [Example 496] | – | – | 1000 to 3000
4 | – | < 1000 | N#Cc1ccc2c(c1)C[C@@H](NC(=O)c1cc3n(n1)CCN(Cc1ccccc1F)C3)CO2 [Example 497] | – | – | ≥ 3000
5 | – | < 1000 | N#Cc1ccc2c(c1)C[C@@H](NC(=O)c1cc3n(n1)CCN(Cc1ccccc1C(F)(F)F)C3)CO2 [Example 499] | – | – | 1000 to 3000
6 | – | < 10000 | CC(C)(CC1CC1)N1CCn2nc(C(=O)N[C@H]3COc4ccc(C#N)cc4C3)cc2C1 [Example 502] | – | – | 1000 to 3000
7 | – | < 1000 | O=C(N[C@H]1COc2ccc(CC(F)F)cc2C1)c1cc2n(n1)CCN(CCC1CC1)C2 [Example 504] | – | – | 1000 to 3000
8 | – | < 1000 | O=C(N[C@H]1COc2ccc(C(F)(F)F)cc2C1)c1cc2n(n1)CCN(CCC(F)(F)F)C2 [Example 506] | – | – | 1000 to 3000
9 | – | < 1000 | O=C(N[C@H]1COc2ccc(COCC(F)(F)F)cc2C1)c1cc2n(n1)CCN(CCC(F)(F)F)C2 [Example 507] | – | – | ≥ 3000
10 | – | < 1000 | Cn1ccc(-c2c(C(=O)N[C@H]3COc4ccc(C(F)(F)F)cc4C3)nn3c2COCC3)n1 [Example 518] | – | – | 1000 to 3000
11 | – | < 10000 | O=C(N[C@H]1COc2ccc(C(F)(F)F)cc2C1)c1nn2c(c1C(O)c1ccccn1)COCC2 (stereo partly shown) [Example 530] | – | – | ≥ 3000
12 | – | < 10000 | O=C(N[C@H]1COc2ccc(C(F)(F)F)cc2C1)c1nn2c(c1CCc1ccccn1)COCC2 [Example 531] | – | – | 1000 to 3000
13 | – | < 1000 | N#CC1(COCC2CCn3nc(C(=O)N[C@H]4COc5ccc(Cl)cc5C4)cc3O2)CC1 (stereo partly shown) [Example 538] | – | – | ≥ 3000
14 | – | < 1000 | CC(C)(F)C1CCn2nc(C(=O)N[C@H]3COc4ccc(C#N)cc4C3)cc2O1 (stereo partly shown) [Example 540] | – | – | 1000 to 3000
15 | – | < 1000 | N#Cc1ccc2c(c1)C[C@@H](NC(=O)c1cc3n(n1)CC(C(F)(F)COCC1CC1)O3)CO2 (stereo partly shown) [Example 541] | – | – | ≥ 3000
16 | – | < 10000 | CC1CCn2nc(C(=O)N[C@H]3COc4ccc(COCC(F)(F)F)cc4C3)cc2OC1 (stereo partly shown) [Example 543] | – | – | ≥ 3000
17 | – | < 1000 | COC1c2cc(C(F)(F)F)ccc2OC[C@@H]1NC(=O)c1cc2n(n1)CCC(C(F)F)O2 (stereo partly shown) [Example 568] | – | – | ≥ 3000
18 | – | < 10000 | O=C(N[C@H]1COc2ccc(C(F)(F)F)cc2C1O)c1cc2n(n1)CCN(CCC1CC1)C2 (stereo partly shown) [Example 593] | – | – | 1000 to 3000

Second part, the molecule before the results:

Row | SMILES | IC50 (human Nav1.7; [1]) [nM] | IC50 (human Nav1.7; [4]) [nM] | IC50 (human Nav1.5; [2]) [nM] | Inhibition rate (%) (male ICR mice) | IC50 (human Nav1.5; [3]) [nM]
19 | COc1cc(C2CCn3nc(C(=O)N[C@H]4COc5ccc(C#N)cc5C4)cc3O2)ccn1 (single isomer, unassigned) [74 (isomer A)] | < 1000 | – | ≥ 3000 | A (Compounds with an inhibition rate of 30% or more are indicated by the letter “A”) | –
20 | CCCOCC1CCn2nc(C(=O)N[C@H]3COc4ccc(C#N)cc4C3)cc2O1 (single isomer, unassigned) [101 (isomer A)] | < 1000 | – | ≥ 3000 | C (compounds with an inhibition rate of 10% or more but less than 20% is indicated by the letter “C”) | –
21 | N#Cc1ccc2c(c1)C[C@@H](NC(=O)c1cc3n(n1)CCC(CCOC(F)(F)F)O3)CO2 (single isomer, unassigned) [144 (isomer B)] | – | – | – | A (Compounds with an inhibition rate of 30% or more are indicated by the letter “A”) | ≥ 3000
22 | Cn1ccc(-c2ccc3c(c2)C[C@@H](NC(=O)c2cc4n(n2)CC(CCOC(F)(F)F)O4)CO3)n1 (single isomer, unassigned) [213 (isomer B)] | – | – | – | B (compounds with an inhibition rate of 20% or more and less than 30% are indicated by the letter “B”) | –
23 | CCC1CCn2nc(C(=O)N[C@H]3COc4ccc(C#N)cc4C3)cc2O1 (single isomer, unassigned) [Example 92 (isomer B)] | – | – | – | A (Compounds with an inhibition rate of 30% or more are indicated by the letter “A”) | –
24 | O=C(N[C@H]1COc2ccc(Cl)cc2C1)c1cn2c(n1)CCC(C(F)(F)F)C2 (single isomer, unassigned; isomer a) [Example 288, hydrochloride] | – | – | – | A (Compounds with an inhibition rate of 30% or more are indicated by the letter “A”) | –
25 | Cn1ccc(-c2ccc3c(c2)C[C@@H](NC(=O)c2cc4n(n2)CC(CCSCC(F)(F)F)O4)CO3)n1 (stereo partly shown) [Example 457] | – | < 1000 | – | – | ≥ 3000
26 | Cn1cc(-c2ccc3c(c2)C[C@@H](NC(=O)c2cc4n(n2)CC(CCOCC2CC2)O4)CO3)cn1 (stereo partly shown) [Example 460] | – | < 1000 | – | – | ≥ 3000
27 | Cn1ccc(-c2ccc3c(c2)C[C@@H](NC(=O)c2cc4n(n2)CC(CCOCC2CC2)O4)CO3)n1 (stereo partly shown) [Example 461] | – | < 1000 | – | – | 1000 to 3000
28 | O=C(N[C@H]1COc2ccc(CCOC(F)(F)F)cc2C1)c1cc2n(n1)CC(COC(F)F)O2 (stereo partly shown) [Example 462] | – | < 1000 | – | – | ≥ 3000
29 | N#Cc1ccc2c(c1)C[C@@H](NC(=O)c1cc3n(n1)CC(COCC1CCC1)O3)CO2 (stereo partly shown) [Example 464] | – | < 1000 | – | – | ≥ 3000
30 | O=C(N[C@H]1COc2ccc(CC(F)F)cc2C1)c1cc2n(n1)CC(CCOCC(F)(F)F)O2 (stereo partly shown) [Example 466] | – | < 1000 | – | – | 1000 to 3000
31 | COc1ncc(-c2ccc3c(c2)C[C@@H](NC(=O)c2cc4n(n2)CC(COCC2CC2)O4)CO3)cn1 (stereo partly shown) [Example 468] | – | < 1000 | – | – | ≥ 3000
32 | N#Cc1ccc2c(c1)C[C@@H](NC(=O)c1cc3n(n1)CC(CCOC1CCC1)O3)CO2 (stereo partly shown) [Example 470] | – | < 1000 | – | – | 1000 to 3000
33 | O=C(N[C@H]1COc2ccc(Cl)cc2C1)c1nn2c(c1-c1ccccc1)OCCCC2 [Example 481] | – | < 1000 | – | – | ≥ 3000
34 | O=C(N[C@H]1COc2ccccc2C1)c1cc2n(n1)CCN(CC(F)(F)C(F)(F)F)C2 [Example 487] | – | < 1000 | – | – | 1000 to 3000
35 | O=C(N[C@H]1COc2ccccc2C1)c1cc2n(n1)CCN(CC1CC(F)(F)C1)C2 [Example 488] | – | < 10000 | – | – | ≥ 3000
36 | N#Cc1ccc2c(c1)C[C@@H](NC(=O)c1cc3n(n1)CCN(CC(F)(F)C(F)(F)F)C3)CO2 [Example 489] | – | < 10000 | – | – | ≥ 3000
37 | O=C(N[C@H]1COc2ccccc2C1)c1cc2n(n1)CCN(CC(C1CC1)C1CC1)C2 [Example 490] | – | < 10000 | – | – | ≥ 3000
38 | N#Cc1ccc2c(c1)C[C@@H](NC(=O)c1cc3n(n1)CCN(CCC1CC1)C3)CO2 [Example 491] | – | < 10000 | – | – | ≥ 3000
39 | O=C(N[C@H]1COc2ccc(C(F)F)cc2C1)c1cc2n(n1)CCN(Cc1ccccn1)C2 [Example 492] | – | < 10000 | – | – | ≥ 3000
40 | O=C(N[C@H]1COc2ccc(Cl)cc2C1)c1cc2n(n1)CCN(CC(C(F)(F)F)C(F)(F)F)C2 [Example 493] | – | < 1000 | – | – | 1000 to 3000
